Assay results as given in article PMC6471532, “Drug Transport across Porcine Intestine Using an Ussing Chamber System: Regional Differences and the Effect of P-Glycoprotein and CYP3A4 Activity on Drug Absorption” (Pharmaceutics, 2019).
≈ marks a conversion by molar mass, not a printed value.

Columns and labels:
[1] = Segmental drug permeation across porcine duodenum, jejunum, ileum and colon, Ussing chamber; type: in vitro ADME, pig; settings: female, Swiss noble, pig, 100 µM in KBR
[2] = system: porcine duodenum, jejunum, ileum and colon; assay: as above; type: in vitro ADME, pig; settings: KBR, 2 h
[3] = system: human intestine; settings: Ussing chamber; cited from earlier work
[4] = Solubility in KBR, FaSSIF V2 and FeSSIF V2
[5] = Passive absorption across viable porcine intestine (jejunum) ex vivo, Ussing chamber, from KBR and biorelevant media; settings: female, Swiss noble, pig
[6] = system: viable porcine intestine (jejunum); assay: as above; settings: for QDEP FaSSIF V2 / QDEP FeSSIF V2 / QDEP KBR: amount deposited in intestine at 2 h as % of donor; for QPERM FaSSIF V2 / QPERM FeSSIF V2 / QPERM KBR: amount permeated at 2 h as % of donor
[7] = system: human jejunum; settings: cited from earlier work; for Peff,human^a In Vivo: Loc-I-Gut, jejunal segment, cylindrical surface area; for Peff,human^b In Vivo: Loc-I-Gut with physiological estimates of the surface area for absorption
[8] = system: CYP3A4; settings: jejunum
[9] = system: CYP3A4; assay: in vitro; settings: female, Swiss noble, pig, jejunum, 100 µM in KBR
[10] = source not given; cited from earlier work
[11] = biological target: T1, P-gp (Sus scrofa, UniProt K7GMM7)
T1 sequence (K7GMM7 1-1248): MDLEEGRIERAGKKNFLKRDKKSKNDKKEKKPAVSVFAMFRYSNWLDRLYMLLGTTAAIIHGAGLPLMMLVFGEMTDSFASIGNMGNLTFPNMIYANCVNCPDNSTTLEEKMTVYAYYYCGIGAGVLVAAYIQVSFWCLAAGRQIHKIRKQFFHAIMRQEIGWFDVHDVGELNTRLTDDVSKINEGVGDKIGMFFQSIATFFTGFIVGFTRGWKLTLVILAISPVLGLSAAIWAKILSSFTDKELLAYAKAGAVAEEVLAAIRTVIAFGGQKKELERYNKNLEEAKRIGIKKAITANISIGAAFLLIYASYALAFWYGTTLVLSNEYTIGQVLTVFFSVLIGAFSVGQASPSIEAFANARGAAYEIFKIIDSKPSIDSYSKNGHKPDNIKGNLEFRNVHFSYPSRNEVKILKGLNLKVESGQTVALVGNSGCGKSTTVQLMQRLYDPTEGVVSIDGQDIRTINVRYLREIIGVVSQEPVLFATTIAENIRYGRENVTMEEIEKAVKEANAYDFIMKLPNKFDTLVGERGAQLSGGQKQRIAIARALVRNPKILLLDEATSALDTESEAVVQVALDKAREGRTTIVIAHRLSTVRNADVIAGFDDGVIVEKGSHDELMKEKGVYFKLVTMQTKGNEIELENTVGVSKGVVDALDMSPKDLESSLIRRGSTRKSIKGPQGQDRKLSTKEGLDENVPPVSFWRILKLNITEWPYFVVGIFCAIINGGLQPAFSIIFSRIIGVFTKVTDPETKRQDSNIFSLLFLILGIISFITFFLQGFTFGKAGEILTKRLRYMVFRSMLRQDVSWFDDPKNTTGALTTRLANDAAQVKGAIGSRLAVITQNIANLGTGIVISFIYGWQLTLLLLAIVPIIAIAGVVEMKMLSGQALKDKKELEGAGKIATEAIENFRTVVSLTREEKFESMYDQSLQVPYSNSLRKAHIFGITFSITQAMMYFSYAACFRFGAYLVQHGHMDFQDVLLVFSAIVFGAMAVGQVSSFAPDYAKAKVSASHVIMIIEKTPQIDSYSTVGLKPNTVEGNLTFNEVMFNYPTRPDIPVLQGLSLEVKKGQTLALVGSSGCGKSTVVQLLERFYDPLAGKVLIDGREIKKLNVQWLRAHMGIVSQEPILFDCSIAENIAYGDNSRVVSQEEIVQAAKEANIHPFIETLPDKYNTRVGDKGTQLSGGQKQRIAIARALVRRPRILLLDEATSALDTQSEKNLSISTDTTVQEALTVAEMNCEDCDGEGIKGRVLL

[12] = biological target: T1, P-gp; assay: in vitro; settings: female, Swiss noble, pig, pH 7.4, with verapamil hydrochloride 100 µM in the donor compartment
[13] = KBR buffer, pH 7.4, aqueous buffer

Row | Compound | solubility ([4]; FaSSIF V2, pH 6.5, fassif) [µg/mL] | solubility ([4]; FeSSIF V2, pH 5.8, fessif) [µg/mL] | solubility [4, 13] [µg/mL] | Papp at 120 min, 100 µM ([5]; pH 5.8) [×10⁻⁶ cm/s] | Papp at 120 min, 100 µM ([5]; pH 6.5) [×10⁻⁶ cm/s] | Papp at 120 min, 100 µM ([5]; pH 7.4) [×10⁻⁶ cm/s] | QDEP FaSSIF V2 [6] [%] | QDEP FeSSIF V2 [6] [%] | QDEP KBR [6] [%] | QPERM FaSSIF V2 [6] [%] | QPERM FeSSIF V2 [6] [%] | QPERM KBR [6] [%] | Peff,human^a In Vivo [7] | further results
1 | COCCc1ccc(OCC(O)CNC(C)C)cc1 (racemic) [Metoprolol, (+/−)-Metoprolol] | 43800 ± 15800 (≈ 164 mM) | 381000 ± 33800 (≈ 1420 mM) | 298000 ± 13900 (≈ 1110 mM) | 5.79 ± 1.38 | 7.62 ± 1.41 | 10.6 ± 2.92 | 0.12 ± 0.03 | 0.22 ± 0.01 | 0.28 ± 0.04 | 0.89 ± 0.19 | 0.74 ± 0.08 | 0.18 ± 0.05 | – | Papp at 120 min, 100 µM ([1]; pH 7.4, colon, read-out: Papp,pig Ex Vivo Colon): 17.6 ± 5.41 ×10⁻⁶ cm/s; Papp at 120 min, 100 µM ([1]; pH 7.4, duodenum, read-out: Papp,pig Ex Vivo Duodenum): 0.39 ± 0.16 ×10⁻⁶ cm/s; Papp at 120 min, 100 µM ([1]; pH 7.4, ileum, read-out: Papp,pig Ex Vivo Ileum): 6.87 ± 1.23 ×10⁻⁶ cm/s; Papp at 120 min, 100 µM ([1]; pH 7.4, jejunum, read-out: Papp,pig Ex Vivo Jejunum): 10.6 ± 2.92 ×10⁻⁶ cm/s; QDEP Colon ([2]; colon): 0.02 ± 0.00%; QPERM Colon ([2]; colon): 1.65 ± 0.87 (6) %; QDEP Duodenum ([2]; duodenum): 2.35 ± 0.25%; QPERM Duodenum ([2]; duodenum): 0.14 ± 0.08 (5) %; QDEP Ileum ([2]; ileum): 1.89 ± 0.67%; QPERM Ileum ([2]; ileum): 0.83 ± 0.09 (5) %; QPERM Jejunum ([2]; jejunum): 0.18 ± 0.05 (4) %; Papp,human jejunum [3]: 15.9 ± 3.69 10^−6 cm/s
2 | NC(=O)N1c2ccccc2C=Cc2ccccc21 [Carbamazepine] | 320 ± 10 (≈ 1.35 mM) | 730 ± 10 (≈ 3.09 mM) | 200 ± 20 (≈ 0.846 mM) | 4.26 ± 0.96 | 5.97 ± 0.52 | 7.81 ± 5.69 | – | 3.45 ± 0.52 | 1.44 ± 0.16 | – | 0.58 ± 0.22 | 2.39 ± 0.42 | 430 n.a. [31] 10^−6 cm/s | –
3 | NS(=O)(=O)c1cc(C(=O)O)c(NCc2ccco2)cc1Cl [Furosemide] | – | – | – | – | – | – | 2.22 ± 0.17 | 1.52 ± 0.24 | – | – | – | – | 5 n.a. [31] 10^−6 cm/s | Peff,human^b In Vivo [7]: 1–1.6 [77] 10^−6 cm/s
4 | NS(=O)(=O)c1cc2c(cc1Cl)NCNS2(=O)=O [Hydrochlorothiazide] | – | – | – | 1.37 ± 0.53 | 0.2 ± 0.25 | 2.88 ± 2.84 | 0.22 ± 0.11 | 0.74 ± 0.09 | – | 0.11 ± 0.05 | 0.23 ± 0.08 | – | 4 n.a. [31] 10^−6 cm/s | –
5 | Cc1ncc2n1-c1ccc(Cl)cc1C(c1ccccc1F)=NC2 [Midazolam] | – | – | – | – | – | – | – | – | – | – | – | – | – | Effect of the presence of clotrimazole on Papp,pig ([8]; clotrimazole 100 µM): significantly increased; QDEP (+CLOTR) ([8]; with clotrimazole 100 µM): 7.49 ± 2.50%; QPERM (+CLOTR) ([8]; with clotrimazole 100 µM): 0.18 ± 0.08%; QDEP (−CLOTR) ([8]; without clotrimazole): 8.06 ± 1.33%; QPERM (−CLOTR) ([8]; without clotrimazole): 0.13 ± 0.09%; Papp at 120 min, 100 µM ([9]; pH 7.4, Papp,pig Ex Vivo (+CLOTR), with clotrimazole 100 µM): 0.46 ± 0.07 ×10⁻⁶ cm/s; Papp at 120 min, 100 µM ([9]; pH 7.4, Papp,pig Ex Vivo (−CLOTR), without clotrimazole): 0.183 ± 0.138 ×10⁻⁶ cm/s; log P [10]: 3.89
6 | COc1ccc2cc([C@H](C)C(=O)O)ccc2c1 [Naproxen] | – | – | – | – | – | – | – | 4.74 ± 1.04 | – | – | – | – | 850 n.a. [31] 10^−6 cm/s | Peff,human^b In Vivo [7]: 27–42 [77] 10^−6 cm/s
7 | CN1C(C(=O)Nc2ccccn2)=C(O)c2ccccc2S1(=O)=O [Piroxicam] | 290 ± 20 (≈ 0.875 mM) | 60 (≈ 0.181 mM) | 430 ± 20 (≈ 1.3 mM) | 5.14 ± 0.78 | 10.8 ± 3.7 | 8.93 ± 2.03 | 5.63 ± 0.26 | 0.21 ± 0.04 | 4.12 ± 0.15 | 2.32 ± 0.79 | 1.13 ± 0.46 | 2.52 ± 0.70 | 665 n.a. [31] 10^−6 cm/s | log P [10]: 3.06
8 | CNC(=C[N+](=O)[O-])NCCSCc1ccc(CN(C)C)o1 [Ranitidine] | 15900 ± 1470 (≈ 50.5 mM) | 808000 ± 70500 (≈ 2570 mM) | 19600 ± 2780 (≈ 62.5 mM) | – | – | – | – | – | – | – | – | – | – | Effect of the presence of verapamil on Papp,pig in the ileum ([11]; ileum, verapamil 100 µM, Student's t-test): significantly increased; QDEP Ileum (+VER) ([11]; ileum, with verapamil 100 µM): 7.91 ± 0.74%; QPERM Ileum (+VER) ([11]; ileum, with verapamil 100 µM): 0.25 ± 0.03 (6) %; QDEP Ileum (−VER) ([11]; ileum, without verapamil): 1.10 ± 0.59%; QPERM Ileum (−VER) ([11]; ileum, without verapamil): 0.55 ± 0.35 (4) %; Difference in Papp,pig across the jejunum in the presence or absence of verapamil ([11]; jejunum, verapamil 100 µM): No statistically significant difference; QDEP Jejunum (+VER) ([11]; jejunum, with verapamil 100 µM): 5.47 ± 0.75%; QPERM Jejunum (+VER) ([11]; jejunum, with verapamil 100 µM): 0.23 ± 0.15 (5) %; QDEP Jejunum (−VER) ([11]; jejunum, without verapamil): 1.32 ± 0.31%; QPERM Jejunum (−VER) ([11]; jejunum, without verapamil): 0.67 ± 0.12 (6) %; Papp at 120 min, 100 µM [12]: 4.92 ×10⁻⁶ cm/s
9 | OCc1ncc2n1-c1ccc(Cl)cc1C(c1ccccc1F)=NC2 [α-hydroxymidazolam] | – | – | – | – | – | – | – | – | – | – | – | – | – | Amount of principal metabolite in the intestinal tissue in the presence of clotrimazole ([8]; parent drug 100 µM, clotrimazole 100 µM): significantly decreased
